Experiment [1] concerns the target T1, H^+ K^+ ATPase (Sus scrofa, UniProt P19156).
T1 construct: Lyophilised gastric vesicles were prepared from pig fundic mucosa; from tissue; host or cells: pig fundic (gastric) mucosa, lyophilised gastric vesicles
The experiment is described as follows: K^+ -stimulated ATPase activity in lyophilised gastric vesicles. As to conditions: lyophilised gastric vesicles from pig fundic mucosa, 37° C., pH 7.0, 30 minutes. The experiment is classed as biochemical. The protocol:
The effects of a single high concentration (100 μM) of a compound of structure (I) on K^+ -stimulated ATPase activity in lyophilised gastric vesicles was determined. Preferred compounds of structure (I) were also tested over a range of concentrations to determine IC50 values.
Lyophilised gastric vesicles were prepared from pig fundic mucosa after the method of Keeling et. al. (Biochem. Pharmacol., 34, 2967, 1985).
K^+ -stimulated ATPase activity was determined at 37° C. in the presence of the following: 10 mM Pipes/Tris buffer pH 7.0, 2 mM MgSO4, 1 mM KCl, 2 mM Na2 ATP and 3-6 μg protein/ml lyophilised gastric vesicles. After incubation for 30 minutes, the inorganic phosphate hydrolysed from ATP was determined by the method of Yoda and Hokin (Biochem. Biophys. Res. Commun. 40, 880, 1970).
Compounds of structure (I) were dissolved in dimethylsulphoxide which up to the highest concentration
used had no effect on K^+ -stimulated ATPase activity.
The effect of the highest concentration of each compound of structure (I) on the recovery of a standard amount of inorganic phosphate was also determined.

Experiment [2] has as its system pentagastrin stimulated gastric acid secretion. Put plainly: Rat Lumen Perfused Stomach (pentagastrin stimulated gastric acid secretion). The experiment is classed as in vivo. As to conditions: i.v. administration, 10 μmole/kg. The source says:
B. Rat Lumen Perfused Stomach (pentagastrin stimulated gastric acid secretion).
Using a modification of the procedure described by Ghosh & Schild (Br. J. Pharmacology, 13, 54, 1958), the compounds of the following examples were found on i.v. administration at a concentration of 10 μmole/kg to cause an inhibition of pentagastrin stimulated gastric acid secretion as follows: […]

Consider seven compounds from patent publication US5082848A, “Substituted 4-aminoquinoline derivatives as gastric acid secretion inhibitors” (Smith Kline & French Laboratories, Ltd., priority 1988, dated 1992).

Molecules are shown by their SMILES.

T1 sequence (P19156 2-1034 limits assumed): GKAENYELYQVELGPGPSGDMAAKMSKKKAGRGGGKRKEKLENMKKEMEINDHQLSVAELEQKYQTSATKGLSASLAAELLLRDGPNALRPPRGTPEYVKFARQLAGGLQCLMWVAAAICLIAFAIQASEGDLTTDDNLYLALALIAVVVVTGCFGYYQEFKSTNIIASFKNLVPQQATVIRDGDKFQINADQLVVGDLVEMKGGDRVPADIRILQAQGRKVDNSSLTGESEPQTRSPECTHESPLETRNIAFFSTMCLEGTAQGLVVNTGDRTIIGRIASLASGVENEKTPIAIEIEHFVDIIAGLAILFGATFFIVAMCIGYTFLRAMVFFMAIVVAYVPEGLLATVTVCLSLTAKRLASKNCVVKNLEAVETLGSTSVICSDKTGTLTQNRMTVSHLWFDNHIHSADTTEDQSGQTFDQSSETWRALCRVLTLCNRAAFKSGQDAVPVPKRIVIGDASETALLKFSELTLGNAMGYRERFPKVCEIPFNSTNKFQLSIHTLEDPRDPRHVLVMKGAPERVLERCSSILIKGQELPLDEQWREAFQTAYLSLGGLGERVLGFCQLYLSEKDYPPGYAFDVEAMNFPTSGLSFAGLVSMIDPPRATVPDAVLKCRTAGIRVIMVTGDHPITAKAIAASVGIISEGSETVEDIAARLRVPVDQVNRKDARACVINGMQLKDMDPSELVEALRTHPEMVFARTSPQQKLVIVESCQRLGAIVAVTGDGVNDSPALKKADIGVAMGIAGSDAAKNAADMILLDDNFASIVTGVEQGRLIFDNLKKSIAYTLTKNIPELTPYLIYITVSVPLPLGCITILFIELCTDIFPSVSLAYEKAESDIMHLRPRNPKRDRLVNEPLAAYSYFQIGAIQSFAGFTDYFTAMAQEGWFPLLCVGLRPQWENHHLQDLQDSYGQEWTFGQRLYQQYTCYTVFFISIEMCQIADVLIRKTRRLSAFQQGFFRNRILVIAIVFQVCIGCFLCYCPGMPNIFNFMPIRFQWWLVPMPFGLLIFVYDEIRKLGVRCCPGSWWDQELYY
T1 sequence (P18434 whole entry partner): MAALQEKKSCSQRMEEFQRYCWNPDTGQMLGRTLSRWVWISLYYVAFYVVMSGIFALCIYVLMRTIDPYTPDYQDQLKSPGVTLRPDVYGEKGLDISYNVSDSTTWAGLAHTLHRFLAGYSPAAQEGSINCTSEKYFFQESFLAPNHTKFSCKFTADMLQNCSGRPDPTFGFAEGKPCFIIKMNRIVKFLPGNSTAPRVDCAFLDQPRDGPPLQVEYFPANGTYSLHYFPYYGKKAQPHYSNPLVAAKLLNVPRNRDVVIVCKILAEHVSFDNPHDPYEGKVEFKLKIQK

The IC50 is the concentration that inhibits the measured activity by half. Higher therefore signals a need for much substance. The compound `CCCC(=O)c1cnc2c(OC)cccc2c1Nc1ccccc1COC` [Example 2, 3-butyryl-4-(2-methoxymethylphenylamino)-8-methoxyquinoline] displayed a concentration for half-maximal inhibition (IC50) in experiment [1] of 5.5 µM. The “% inhibition of pentagastrin stimulated gastric acid secretion” value (from here on “% inhibition”) in experiment [2] turned out to be 43%. For `CCCC(=O)c1cnc2c(OC)cccc2c1Nc1cc(CO)ccc1C` [Example 7, 3-butyryl-4-(5-hydroxymethyl-2-methylphenylamino)-8-methoxyquinoline] the same measures were 10.2 µM and 25%.

Take `CCCC(=O)c1cnc2c(OC)cccc2c1Nc1ccc(CO)cc1` [Example 4, 3-butyryl-4-(4-hydroxymethylphenylamino)-8-methoxyquinoline]: the “% inhibition” value in experiment [2] was 51%. `CCCC(=O)c1cnc2c(OC)cccc2c1Nc1ccccc1CO` [Example 1, 3-butyryl-4-(2-(hydroxymethyl)phenylamino)-8-methoxyquinoline] displayed an IC50 in experiment [1] of 12 µM. In addition, the “% inhibition” value in experiment [2] worked out at 33%. In turn, `CCCC(=O)c1cnc2c(OC)cccc2c1Nc1cccc(CO)c1C` [Example 6, 3-butyryl-4-(3-hydroxymethyl-2-methylphenylamino)-8-methoxyquinoline] showed an IC50 in experiment [1] of 6 µM.

`CCCC(=O)c1cnc2c(OC)cccc2c1Nc1ccc2c(c1)OCO2` [Example 3, 3-butyryl-4-(3,4-(methylenedioxy)phenylamino)-8-methoxyquinoline] gave an IC50 in experiment [1] of 3.6 µM. For the same compound, the “% inhibition” value in experiment [2] is given as 20%. The matching figures for `CCCC(=O)c1cnc2c(OC)cccc2c1Nc1c(C)cc2c(c1C)OCO2` [Example 5, 3-butyryl-4-(3,4-methylenedioxy-2,6-dimethylphenylamino)-8-methoxyquinoline]: 2.7 µM and 44%.
